Experimental findings from PubChem BioAssay (NCI) are described below.

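Assay format: 96-well plates, 48-hour exposure. GI50 is the concentration that inhibits growth by half. TGI marks complete inhibition of growth.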

Among the test systems are IGROV1 ovarian; RPMI-8226 leukemia; UACC-62 melanoma; OVCAR-4 ovarian; K-562 leukemia; HT29 colon; HL-60(TB) leukemia; SF-295 CNS; MDA-MB-435; HS 578T breast.
Holding throughout (experiment): NCI tumour cell line growth inhibition, 48 h

For `CC(C)c1cc(-c2n[nH]c(=O)n2-c2ccc3c(ccn3C)c2)c(O)cc1O`, the GI50 in the assay on IGROV1 ovarian was less than 0.0225 µM; in the assay on RPMI-8226 leukemia, less than 0.0218 µM; in the assay on UACC-62 melanoma it was less than 0.0173 µM; in the assay with OVCAR-4 ovarian, 13 µM; in the assay on K-562 leukemia it was less than 0.0123 µM; with HT29 colon, 0.0423 µM. In addition, the GI50 with HL-60(TB) leukemia was less than 0.01 µM; in the assay with SF-295 CNS, less than 0.0215 µM; in the assay on MDA-MB-435, less than 0.0191 µM; in the assay on HS 578T breast, 0.682 µM. For the same compound, the TGI in the assay on IGROV1 ovarian is 24.8 µM; in the assay with RPMI-8226 leukemia, 31.3 µM; in the assay on UACC-62 melanoma, 0.224 µM; with OVCAR-4 ovarian, more than 86.1 µM; with K-562 leukemia, more than 100 µM; in the assay with HT29 colon, 12.5 µM. Further, the TGI in the assay on HL-60(TB) leukemia turned out to be 21.8 µM; in the assay with SF-295 CNS, 0.796 µM; in the assay with MDA-MB-435 it was 15.6 µM; with HS 578T breast, 90.1 µM.

With `NCCOCCOCCNc1nc(Cc2ccccc2)nc(NCCCN2CCCC2=O)n1`, the GI50 with IGROV1 ovarian, in the assay with RPMI-8226 leukemia, with UACC-62 melanoma, with OVCAR-4 ovarian, in the assay on K-562 leukemia and in the assay on HT29 colon was more than 100 µM throughout. The GI50 in the assay with HL-60(TB) leukemia, in the assay with SF-295 CNS, in the assay on MDA-MB-435 and in the assay with HS 578T breast was more than 100 µM in each case. Moreover, the TGI in the assay on IGROV1 ovarian, with RPMI-8226 leukemia, with UACC-62 melanoma, in the assay with OVCAR-4 ovarian, in the assay with K-562 leukemia and in the assay with HT29 colon was more than 100 µM each time. Further, the TGI in the assay with HL-60(TB) leukemia, in the assay on SF-295 CNS, with MDA-MB-435 and in the assay with HS 578T breast was more than 100 µM throughout.

Consider `NCCn1c(=O)[nH]c(=O)[nH]c1=S`, for which the GI50 is more than 100 µM in the assay on IGROV1 ovarian; more than 100 µM with RPMI-8226 leukemia; more than 100 µM with UACC-62 melanoma; more than 100 µM in the assay with OVCAR-4 ovarian; 54.1 µM in the assay with K-562 leukemia; more than 100 µM in the assay with HT29 colon. Besides, the GI50 in the assay on HL-60(TB) leukemia, in the assay with SF-295 CNS, with MDA-MB-435 and in the assay with HS 578T breast was more than 100 µM each time. Further, the TGI in the assay on IGROV1 ovarian, with RPMI-8226 leukemia, with UACC-62 melanoma, in the assay on OVCAR-4 ovarian, with K-562 leukemia and with HT29 colon was more than 100 µM each time. Moreover, the TGI in the assay with HL-60(TB) leukemia, in the assay on SF-295 CNS, in the assay with MDA-MB-435 and in the assay with HS 578T breast was more than 100 µM throughout.

In the case of `COc1cccc2c1c(C(=O)C(=O)Nc1cc(C)no1)cn2Cc1ccc(F)cc1`, the GI50 is 3.68 µM in the assay on IGROV1 ovarian; 2.11 µM in the assay with RPMI-8226 leukemia; 3.29 µM in the assay with UACC-62 melanoma; 24 µM in the assay with OVCAR-4 ovarian; 1.91 µM with K-562 leukemia; 3.32 µM in the assay on HT29 colon. The GI50 in the assay on HL-60(TB) leukemia is 2.2 µM; in the assay with SF-295 CNS, 6.26 µM; in the assay on MDA-MB-435 it was 1.08 µM; in the assay with HS 578T breast, 3.47 µM. For the same compound, the TGI with IGROV1 ovarian was more than 45.8 µM; in the assay with RPMI-8226 leukemia, more than 24.2 µM; in the assay with UACC-62 melanoma it was more than 100 µM; in the assay with OVCAR-4 ovarian, more than 100 µM; in the assay with K-562 leukemia, more than 36.5 µM; with HT29 colon it was more than 100 µM. The TGI in the assay with HL-60(TB) leukemia is more than 20.2 µM; in the assay on SF-295 CNS, more than 100 µM; in the assay on MDA-MB-435 it was 3.64 µM; in the assay on HS 578T breast it was more than 56.9 µM.

`CCCC(=O)OC1C(C(O)CO)OC2OC(C)(C)OC21` (stereo not given): the TGI in the assay with IGROV1 ovarian was more than 100 µM; with RPMI-8226 leukemia, more than 100 µM; in the assay with UACC-62 melanoma it was more than 100 µM; in the assay on OVCAR-4 ovarian, more than 100 µM; in the assay on K-562 leukemia, less than 3.16 µM; in the assay on HT29 colon, more than 100 µM. Besides, the TGI was less than 3.16 µM with HL-60(TB) leukemia, more than 100 µM with SF-295 CNS, more than 100 µM in the assay with MDA-MB-435 and more than 100 µM in the assay on HS 578T breast.
